Measurements as given in US20240383915A1, “OXAZEPINE COMPOUNDS AND USES THEREOF IN THE TREATMENT OF CANCER” (Genentech, Inc., priority 2021, published 2024).
Like-named read-outs stand apart in the source and are kept apart here.

Experiments:
KRas(G12V) = KRas(G12V) (Homo sapiens (Human), UniProt P01116, G12V); assay: KRas(G12V) GDP HTRF (BODIPY-GDP exchange TR-FRET); format: biochemical
KRas = KRas (Homo sapiens (Human), UniProt P01116); assay: KRas GDP HTRF (BODIPY-GDP exchange TR-FRET); format: biochemical
Outline: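 Inhibition of SOS1-mediated exchange of BODIPY-GDP on KRAS G12D, started with 3 nM recombinant human SOS1 and 300 nM BODIPY-GDP and read after 60 min. TR-FRET excitation 337 nm, ratio 520/490 nm ×10,000. IC50 from 4-parameter Hill fit of normalized data.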

SW480 cells = assay: SW480 proliferation assay; format: cell-based; conditions: read-out: SW480 Prolif IC50 (G12V)
PC-9 cells = assay: PC9 proliferation assay; format: cell-based, human; conditions: read-out: PC9 Prolif IC50 (G12V)

Sequence of KRas(G12V) (P01116-2 other isoform, or with tags, fused parts or gaps G12V): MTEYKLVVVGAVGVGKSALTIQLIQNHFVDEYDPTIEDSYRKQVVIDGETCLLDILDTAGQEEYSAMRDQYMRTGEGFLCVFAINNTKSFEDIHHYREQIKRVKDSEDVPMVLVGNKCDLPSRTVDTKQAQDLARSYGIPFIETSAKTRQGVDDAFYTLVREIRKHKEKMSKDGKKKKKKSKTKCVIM
Sequence of KRas (P01116-2 other isoform, or with tags, fused parts or gaps): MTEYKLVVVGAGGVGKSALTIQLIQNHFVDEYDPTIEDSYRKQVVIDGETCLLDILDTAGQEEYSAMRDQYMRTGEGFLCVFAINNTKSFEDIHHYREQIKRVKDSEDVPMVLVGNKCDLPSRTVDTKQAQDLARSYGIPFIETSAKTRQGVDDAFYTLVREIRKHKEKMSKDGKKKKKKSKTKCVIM

Row | IC50 (KRas(G12V)) [nM] | IC50 (KRas) [nM] | IC50 (SW480 cells; Homo sapiens, SW480, SW480) [nM] | IC50 (PC-9 cells; Homo sapiens, PC-9, PC9) [nM] | IC50 (SW480 cells; SW480) [nM] | IC50 (PC-9 cells; PC9) [nM] | SMILES
1 | 0.78 | 3.3 | 190 | 14000 |  |  | Cc1cc(N)nc(-c2c(Cl)c3c4c(nc(OCC5(C#N)CC5)nc4c2F)N([C@H](C)c2cccnc2N)CCO3)c1C(F)(F)F (atropisomer, axis not shown) [Example 153, 1-((((R)-9-(6-amino-4-methyl-3-(trifluoromethyl)pyridin-2-yl)-4-((R)-1-(2-aminopyridin-3-yl)ethyl)-8-chloro-10-fluoro-5,6-dihydro-4H-[1,4]oxazepino[5,6,7-de]quinazolin-2-yl)oxy)methyl)cyclopropane-1-carbonitrile]
2 | 0.19 | 0.65 | 310 | 16000 |  |  | Cc1cc(N)nc(-c2c(Cl)c3c4c(nc(OCCO)nc4c2F)N([C@H](C)c2cccnc2N)CCO3)c1C(F)(F)F (atropisomer, axis not shown) [Example 156, 2-(((R)-9-(6-amino-4-methyl-3-(trifluoromethyl)pyridin-2-yl)-4-((R)-1-(2-aminopyridin-3-yl)ethyl)-8-chloro-10-fluoro-5,6-dihydro-4H-[1,4]oxazepino[5,6,7-de]quinazolin-2-yl)oxy)ethan-1-ol]
3 | 0.089 | 0.18 | 28 | 3100 |  |  | Cc1cc(N)nc(-c2c(Cl)c3c4c(nc(OC[C@H]5CC[C@@H]6COCCN65)nc4c2F)N([C@H](C)c2cccnc2N)CCO3)c1C(F)(F)F (atropisomer, axis not shown; (aR)) [Example 87b, 6-((R)-4-((R)-1-(2-aminopyridin-3-yl)ethyl)-8-chloro-10-fluoro-2-(((6R,8aR)-hexahydro-1H-pyrrolo[2,1-c][1,4]oxazin-6-yl)methoxy)-5,6-dihydro-4H-[1,4]oxazepino[5,6,7-de]quinazolin-9-yl)-4-methyl-5-(trifluoromethyl)pyridin-2-amine]
4 | 0.08 | 0.2 | 20 | 3000 |  |  | Cc1cc(N)nc(-c2c(Cl)c3c4c(nc(OC[C@H]5CC[C@@H]6COCCCN65)nc4c2F)N([C@H](C)c2cccnc2N)CCO3)c1C(F)(F)F (atropisomer, axis not shown; (aR)) [Example 120b, 6-((R)-4-((R)-1-(2-aminopyridin-3-yl)ethyl)-8-chloro-10-fluoro-2-(((7R,9aR)-hexahydro-1H,3H-pyrrolo[2,1-c][1,4]oxazepin-7-yl)methoxy)-5,6-dihydro-4H-[1,4]oxazepino[5,6,7-de]quinazolin-9-yl)-4-methyl-5-(trifluoromethyl)pyridin-2-amine]
5 | 0.05 | 0.12 | 3.1 | 2800 |  |  | Cc1cc(N)nc(-c2c(F)c3c4c(nc(OC[C@@]56CCCN5C[C@H](F)C6)nc4c2F)N([C@H](C)c2cccnc2N)CCO3)c1C(F)(F)F (atropisomer, axis not shown; (aS)) [Example 66a, 6-((R)-4-((R)-1-(2-aminopyridin-3-yl)ethyl)-8,10-difluoro-2-(((2R,7aS)-2-fluorotetrahydro-1H-pyrrolizin-7a(5H)-yl)methoxy)-5,6-dihydro-4H-[1,4]oxazepino[5,6,7-de]quinazolin-9-yl)-4-methyl-5-(trifluoromethyl)pyridin-2-amine]
6 | 0.05 | 0.066 | 1.1 | 890 |  |  | Cc1c(F)c(N)nc(-c2c(Cl)c3c4c(nc(OC[C@@]56CCCN5C[C@H](F)C6)nc4c2F)N([C@H](C)c2cccnc2N)CCO3)c1C(F)(F)F (atropisomer, axis not shown; (aS)) [Example 75a, 6-((R)-4-((R)-1-(2-aminopyridin-3-yl)ethyl)-8-chloro-10-fluoro-2-(((2R,7aS)-2-fluorotetrahydro-1H-pyrrolizin-7a(5H)-yl)methoxy)-5,6-dihydro-4H-[1,4]oxazepino[5,6,7-de]quinazolin-9-yl)-3-fluoro-4-methyl-5-(trifluoromethyl)pyridin-2-amine]
7 | 0.22 | 0.34 | 2.4 | 3100 |  |  | CNc1cnc(N)c([C@@H](C)N2CCOc3c(Cl)c(-c4nc(N)cc(C)c4C(F)(F)F)c(F)c4nc(OC[C@@]56CCCN5C[C@H](F)C6)nc2c34)c1 (atropisomer, axis not shown; (aS)) [Example 79, 3-((R)-1-((R)-9-(6-amino-4-methyl-3-(trifluoromethyl)pyridin-2-yl)-8-chloro-10-fluoro-2-(((2R,7aS)-2-fluorotetrahydro-1H-pyrrolizin-7a(5H)-yl)methoxy)-5,6-dihydro-4H-[1,4]oxazepino[5,6,7-de]quinazolin-4-yl)ethyl)-N^5-methylpyridine-2,5-diamine]

The next lines start with the molecule.

Row | SMILES | IC50 (KRas(G12V)) [nM] | IC50 (KRas) [nM] | IC50 (SW480 cells; Homo sapiens, SW480, SW480) [nM] | IC50 (PC-9 cells; Homo sapiens, PC-9, PC9) [nM] | IC50 (SW480 cells; SW480) [nM] | IC50 (PC-9 cells; PC9) [nM]
8 | COc1nc2c3c(c(Cl)c(-c4nc(N)cc(C)c4C(F)(F)F)c(F)c3n1)OCCN2[C@H](C)c1cccnc1N (atropisomer, axis not shown) [Example 155, 6-((R)-4-((R)-1-(2-aminopyridin-3-yl)ethyl)-8-chloro-10-fluoro-2-methoxy-5,6-dihydro-4H-[1,4]oxazepino[5,6,7-de]quinazolin-9-yl)-4-methyl-5-(trifluoromethyl)pyridin-2-amine] | 0.45 | 2.5 | 220 | 10000 |  | 
9 | Cc1cc(N)nc(-c2c(Cl)c3c4c(nc(OC[C@H]5CC[C@@H]6COC(F)(F)CN56)nc4c2F)N([C@H](C)c2cccnc2N)CCO3)c1C(F)(F)F (atropisomer, axis not shown; (aR)) [Example 91b, 6-((R)-4-((R)-1-(2-aminopyridin-3-yl)ethyl)-8-chloro-2-(((6R,8aR)-3,3-difluorohexahydro-1H-pyrrolo[2,1-c][1,4]oxazin-6-yl)methoxy)-10-fluoro-5,6-dihydro-4H-[1,4]oxazepino[5,6,7-de]quinazolin-9-yl)-4-methyl-5-(trifluoromethyl)pyridin-2-amine] | 0.81 | 2.2 | 140 | 6400 |  | 
10 | Cc1cc(N)nc(-c2c(Cl)c3c4c(nc(OC[C@H]5CC[C@@H]6COCCN65)nc4c2F)N([C@H](C)c2cncnc2N)CCO3)c1C(F)(F)F (atropisomer, axis not shown; (aR)) [Example 102b, 5-((R)-1-((R)-9-(6-amino-4-methyl-3-(trifluoromethyl)pyridin-2-yl)-8-chloro-10-fluoro-2-(((6R,8aR)-hexahydro-1H-pyrrolo[2,1-c][1,4]oxazin-6-yl)methoxy)-5,6-dihydro-4H-[1,4]oxazepino[5,6,7-de]quinazolin-4-yl)ethyl)pyrimidin-4-amine] | 0.17 | 0.49 | 100 | 8700 |  | 
11 | Cc1cc(N)nc(-c2c(Cl)c3c4c(nc(OC[C@@]56CCCN5C[C@H](F)C6)nc4c2F)N([C@H](C)c2cncc(N)c2)CCO3)c1C(F)(F)F (atropisomer, axis not shown; (aS)) [Example 45, (R)-6-(4-((S)-1-(5-aminopyridin-3-yl)ethyl)-8-chloro-10-fluoro-2-(((2R,7aS)-2-fluorotetrahydro-1H-pyrrolizin-7a(5H)-yl)methoxy)-5,6-dihydro-4H-[1,4]oxazepino[5,6,7-de]quinazolin-9-yl)-4-methyl-5-(trifluoromethyl)pyridin-2-amine] | 0.23 | 0.27 | 50 | 6000 |  | 
12 | Cc1cc(N)nc(-c2c(Cl)c3c4c(nc(OC[C@@]56CCCN5C[C@H](F)C6)nc4c2F)N([C@H](C)c2cccnc2N)CCO3)c1C(F)(F)F (atropisomer, axis not shown; (aS)) [Example 48, 6-(4-((R)-1-(2-aminopyridin-3-yl)ethyl)-8-chloro-10-fluoro-2-(((2R,7aS)-2-fluoro-hexahydro-1H-pyrrolizin-7a-yl)methoxy)-5,6-dihydro-4H-[1,4]oxazepino[5,6,7-de]quinazolin-9-yl)-4-methyl-5-(trifluoromethyl)pyridin-2-amine] | 0.04 | 0.091 |  |  | 1.4 | 1500
13 | Cc1cc(N)nc(-c2c(Cl)c3c4c(nc(OC[C@@]56CCCN5C[C@H](F)C6)nc4c2F)N([C@@H]2CCCc4ccnc(N)c42)CCO3)c1C(F)(F)F (atropisomer, axis not shown; (aS)) [Example 65a, (R)-8-((R)-9-(6-amino-4-methyl-3-(trifluoromethyl)pyridin-2-yl)-8-chloro-10-fluoro-2-(((2R,7aS)-2-fluorotetrahydro-1H-pyrrolizin-7a(5H)-yl)methoxy)-5,6-dihydro-4H-[1,4]oxazepino[5,6,7-de]quinazolin-4-yl)-5,6,7,8-tetrahydroisoquinolin-1-amine] | 0.1 | 0.25 | 2.6 | 940 |  | 
14 | Cc1cc(N)nc(-c2c(Cl)c3c4c(nc(OC[C@@]56CCCN5C[C@H](F)C6)nc4c2F)N([C@@H](C)c2nccnc2N)CCO3)c1C(F)(F)F (atropisomer, axis not shown; (aS)) [Example 80, 3-((S)-1-((R)-9-(6-amino-4-methyl-3-(trifluoromethyl)pyridin-2-yl)-8-chloro-10-fluoro-2-(((2R,7aS)-2-fluorotetrahydro-1H-pyrrolizin-7a(5H)-yl)methoxy)-5,6-dihydro-4H-[1,4]oxazepino[5,6,7-de]quinazolin-4-yl)ethyl)pyrazin-2-amine] | 8.2 | 23.6 | 940 | 1200 |  | 
